Key:
PDE1 = PDE1 inhibition assay; assay type: biochemical; settings: 15 nM tritium labelled cAMP, SPA beads, 1 h at room temperature
Procedure: Reactions were initiated by addition of the cyclic nucleotide substrate, and reactions were allowed to proceed for 1 h at room temperature before being terminated through mixing with 20 μL (0.2 mg) yttrium silicate SPA beads (PerkinElmer).

[1] = Blood Brain Barrier penetration (brain-to-plasma distribution); assay type: in vivo; settings: male CD mice, subcutaneous 10 mg/kg; for Kp at 0.5 h / Kp at 2 h: mouse, brain/plasma, sc; for Brain concentration after 30 minutes / Plasma concentration after 30 minutes / Kp at 0.5 h: 30 min; for Kp at 0.5 h: read-out: Brain/Plasma ratio after 30 minutes; for Brain concentration after 120 minutes / Plasma concentration after 120 minutes / Kp at 2 h: 120 min; for Kp at 2 h: read-out: Brain/Plasma ratio after 120 minutes
Procedure: Male CD mice (20-24 g) were housed pair-wise with free access to food and water for an acclimatization period of 3-7 days before initiation of experiments. Prior to dosing the animals were fasted overnight. During testing, mice were kept in individual cages. The brain-to-plasma distribution was assessed 30 minutes and 2 hours after subcutaneous administration of the test compound at a dose of 10 mg/kg (n=3 at each time point). The dose volume was 10 ml/kg using appropriate vehicle to solubilize each test compound. At the time of sampling, animals were anesthetized with isoflurane and a systemic blood sample collected by cardiac puncture into vacutainers containing sodium heparin as anti-coagulant. The blood was centrifuged at 3500 rpm for 10 minutes at 4° C. to obtain plasma. Following decapitation, brains were dissected out and transferred to pre-weighed vessels followed by tissue weights determination. Plasma and brains were stored at −80° C. until quantitative bioanalysis by LC-MS/MS. Results are expressed as ng/ml for plasma and ng/g for brain samples.

SMILES	IC50 (PDE1) [µM]	Brain concentration after 30 minutes [1]	Plasma concentration after 30 minutes [1]	Brain concentration after 120 minutes [1]	Plasma concentration after 120 minutes [1]	Kp at 0.5 h [1]	Kp at 2 h [1]
C[C@@H]1CN(Cc2ncccn2)C[C@H]1c1cn2c(C3CCOCC3)ncc2c(=O)[nH]1 (single isomer, unassigned) [Compound (P3, enantiomer 1)]	3	30 min.: 67 ng/mL	30 min.: 1620 ng/mL	120 min.: 7 ng/mL	120 min.: 226 ng/mL	0.04	0.03
O=c1[nH]c(CN2CC(Oc3cccnc3)C2)cn2c(C3CCOCC3)ncc12 [Compound (P2), 6-[3-(pyridin-3-yloxy)-azetidin-1-ylmethyl]-3-(tetrahydropyran-4-yl)-7H-imidazo[1,5-a]pyrazin-8-one]	5.28	Below detection	30 min.: 715 ng/mL	Below detection	120 min.: 11 ng/mL		

Further lines, results first:

IC50 (PDE1) [µM]	Brain concentration after 30 minutes [1]	Plasma concentration after 30 minutes [1]	Brain concentration after 120 minutes [1]	Plasma concentration after 120 minutes [1]	Kp at 0.5 h [1]	Kp at 2 h [1]	SMILES
2.5							C[C@@H]1CN(Cc2ncccn2)C[C@H]1c1nc2c(cnn2C2CCOCC2)c(=O)[nH]1 (single isomer, unassigned) [Reference compound, reference compound]
45.1	30 min.: 42 ng/mL	30 min.: 719 ng/mL	120 min.: 7 ng/mL	120 min.: 86 ng/mL	0.06	0.08	O=c1[nH]c(CN2CC(Oc3ccncc3)C2)cn2c(-c3ccc(F)cc3)ncc12 [Compound (P1), 3-(4-fluorophenyl)-6-((3-(pyridin-4-yloxy)azetidin-1-yl)methyl)imidazo[1,5-a]pyrazin-8(7H)-one]
	30 min.: 125 ng/mL	30 min.: 3380 ng/mL	120 min.: 15 ng/mL	120 min. 352 ng/mL			O=c1[nH]c(CN2CC(OCc3ccc(F)cc3)C2)nn2c(C3CCOCC3)ncc12 [Compound (P4)]

Reference: patent US10513524B2, “PDE9 inhibitors with imidazo triazinone backbone and imidazo pyrazinone backbone for treatment of peripheral diseases” (H. LUNDBECK A/S, priority 2015, dated 2019)
